Test results published in the NIST ThermoML archive (doi:10.1016/j.jct.2013.09.018).

Experiments:
[1] = cn = amount concentration of the nth substance listed, in mol/dm3; conditions: 101 kPa, Liquid; for viscosity: Capillary tube (Ostwald / Ubbelohde) method; for mass density: Vibrating tube method
[2] = 101 kPa, Liquid; for viscosity: Capillary tube (Ostwald / Ubbelohde) method; for mass density: Vibrating tube method

CCCCn1cc[n+](C)c1C.F[B-](F)(F)F [1-butyl-2,3-dimethylimidazolium tetrafluoroborate] + CO
[1]
Conditions | mass density, c1 = 0.005 [kg/m3] | mass density, c1 = 0.01 [kg/m3] | mass density, c1 = 0.015 [kg/m3] | mass density, c1 = 0.02 [kg/m3] | viscosity, c1 = 0.005 [mPa·s] | viscosity, c1 = 0.01 [mPa·s] | viscosity, c1 = 0.015 [mPa·s] | viscosity, c1 = 0.02 [mPa·s]
298.15 K | 787.59 | 788.04 | 788.45 | 788.96 | 0.552 | 0.5649 | 0.5747 | 0.5845
308.15 K | 778.01 | 778.52 | 778.98 | 779.46 | 0.487 | 0.4978 | 0.5043 | 0.513
318.15 K | 768.49 | 769.43 | 769.92 | 770.36 | 0.4271 | 0.436 | 0.4446 | 0.4532

CO [methanol]
[2]
Conditions | mass density [kg/m3] | viscosity [mPa·s]
298.15 K | 786.61 | 0.545
308.15 K | 777.15 | 0.476
318.15 K | 767.74 | 0.4183

CO [methanol] + CCCCn1cc[n+](C)c1C.F[B-](F)(F)F
[1], c2 = 0
Conditions | mass density [kg/m3] | viscosity [mPa·s]
298.15 K | 786.61 | 0.545
308.15 K | 777.15 | 0.476
318.15 K | 767.74 | 0.4183
